One experiment concerns the target CMY-10 (Klebsiella aerogenes, UniProt Q99QC1). The experiment is described as follows: nitrocefin hydrolysis assay at […] inhibitor. Format: biochemical. Particulars: read-out: % inhibition at 200 μM.
A further experiment addresses AmpC BER (Escherichia coli, UniProt A7TUE6). The experiment is described as follows: nitrocefin hydrolysis steady-state kinetics, Lineweaver-Burk. Format: biochemical.

Sequence of AmpC BER (A7TUE6 20-379): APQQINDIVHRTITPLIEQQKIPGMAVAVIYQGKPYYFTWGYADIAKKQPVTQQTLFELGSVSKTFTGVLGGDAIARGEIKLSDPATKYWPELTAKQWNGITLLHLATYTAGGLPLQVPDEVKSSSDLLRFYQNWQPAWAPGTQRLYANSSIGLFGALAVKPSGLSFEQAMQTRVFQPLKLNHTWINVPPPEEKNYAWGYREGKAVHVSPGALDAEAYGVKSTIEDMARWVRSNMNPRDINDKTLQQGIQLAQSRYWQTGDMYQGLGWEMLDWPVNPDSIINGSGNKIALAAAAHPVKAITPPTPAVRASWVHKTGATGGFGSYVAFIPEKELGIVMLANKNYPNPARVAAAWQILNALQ
Sequence of CMY-10 (Q99QC1 24-382): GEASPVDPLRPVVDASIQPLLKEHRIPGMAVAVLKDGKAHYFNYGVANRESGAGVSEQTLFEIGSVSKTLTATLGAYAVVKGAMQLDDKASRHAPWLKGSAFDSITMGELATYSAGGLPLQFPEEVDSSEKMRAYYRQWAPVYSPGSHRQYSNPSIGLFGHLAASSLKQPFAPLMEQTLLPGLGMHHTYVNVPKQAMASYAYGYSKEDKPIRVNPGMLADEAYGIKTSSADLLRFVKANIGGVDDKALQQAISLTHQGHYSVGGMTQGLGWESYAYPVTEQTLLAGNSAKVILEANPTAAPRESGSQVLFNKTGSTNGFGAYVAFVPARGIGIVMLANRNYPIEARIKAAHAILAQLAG

Consider `C=C1CCC[C@@H]2[C@@](C)(CCC(CCCc3ccoc3)COS(=O)(=O)O)[C@H](C)CC[C@]12C` (some centres unmarked) [Hali 5, halisulfate 5], for which the inhibition at 200 µM at CMY-10 was ~90%. Further, the Ki on AmpC BER came to 5.87 µM.

A word on the inhibition: it is the share of the control response that was lost under treatment. For orientation: Ki means a measure of affinity in units of concentration, obtained from inhibition or displacement. Read a low Ki as tighter binding.

Values taken from PMC7773887 (Computational and Structural Biotechnology Journal, 2020).
